Laboratory results from US6372717B1, “Synthetic peptides and their use in cosmetic or dermopharmaceutical compositions” (Sederma S.A., priority 1999, dated 2002).

Tested on: human skin
Experiment: activity by topical application
Format: in vivo
Excerpt: The object of the present invention is the discovery that this peptide, and above all the lipophile derivatives of the peptide, have a calming, antalgic activity when applied to the human skin in a suitable cosmetic or dermopharmaceutical preparation.

## N=C(N)NCCC[C@H](NC(=O)[C@@H](N)Cc1ccc(O)cc1)C(=O)O [H-L-Tyr-L-Arg-OH]
  activity by topical application: only a slight activity
